How the values were obtained:
[1] = system: mixed cortical cell cultures containing glial and neuronal cells; experiment: In vitro thiol experiment: intracellular cysteine levels; type: cell-based, mice; conditions: for intracellular cysteine concentration: raw concentration in collected samples
Description: To further resolve by what process the inhibition of ^14C-cystine uptake is occurring intracellular cysteine levels were determined.
Mixed cortical cell cultures containing glial and neuronal cells were prepared from fetal (15-16 day gestation) mice as previously described. (Lobner D, “Comparison of the LDH and MTT assays for quantifying cell death: validity for neuronal apoptosis?,” J. Neurosci. Methods, 96(2): 147-152 (Mar. 15, 2000)). Dissociated cortical cells were plated on 24-well plates coated with poly-D-lysine and laminin in Eagles' Minimal Essential Medium (MEM, Earle's salts, supplied glutamine-free) supplemented with 5% heat-inactivated horse serum, 5% fetal bovine serum, 2 mM glutamine and glucose (total 21 mM). Cultures were maintained in humidified 5% CO2 incubators at 37° C. Mice were handled in accordance with a protocol approved by our institutional animal care committee and in compliance with the Public Health service Policy on Humane Care and Use of Laboratory Animals.
Mixed cortical cell cultures, 14 days in vitro (this allows for a confluent layer of astrocytes to form and the neurons to generate a complex network of axons and dendrites), were washed into bicarbonate buffered salt solution. After 1 hour, 3, 10, 30, 100 μM of Pro-4047 or Pro-4051 was added and the cells were incubated for 30 or 90 minutes, after which the cells were thoroughly washed and the collected in 250 μL of aqueous mobile phase (50 mM citric acid, 10 mM octanesulfonic acid, pH 2.8) was added, after 10 minutes at 37° C. the cells were scraped from the plates and transferred to 1.5 mL tubes for analysis.
Samples were then sonicated with a Fisher Scientific 60 Sonic Dismembrator. One fraction of this homogenate was analyzed with the Pierce BCA (bicinchoninic acid) method to determine protein concentration. The other fraction was filtered using 3 K molecular weight cutoff, polyethersulfone centrifugal protein filters, and analyzed for thiol content using HPLC (ALF-115 column, 150×1.0 mm, 3 μm C18 [Pro-2023 analysis utilized a Phenomenex Kinetex 2.6 μM, C18, 100 A, 150×2.1 mm and Pro-4047 analysis utilized a Phenomenex Kinetex X-B, C18, 100 A, 2.6 μm, 150×4.4 mm]; mobile phase: 50 mM citric acid, 10 mM octanesulfonic acid, 2% acetonitrile, pH 2.8, 50 μL/min flow rate [Pro-2023 analysis utilized a 100 μL/min flow rate and Pro-4047 analysis utilized 1% acetonitrile and 0.4 mL/min flow rate] with electrochemical detection (Decade II, Au working electrode, Flex Cell HyREF, 0.55V, Antec Leyden, Netherlands [Pro-4047 analysis utilized a Magic Diamond working electrode and 1.8V]).
When the intracellular thiol assay was initiated, all data was normalized to protein concentration. […] The data presented herein represents the raw cysteine concentrations in the collected samples. […] Pro-4006 at 10 μM increases intracellular cysteine concentration to 0.07 μM at 30 minutes (approximately 3.5 times that of the control; FIG. 11). […] Pro-4047 at 300 μM increases intracellular cysteine concentration to 0.74 μM at 90 minutes (approximately 4.9 times that of the control; FIG. 13). […] Thus, based on the 3 in vitro experiments it is apparent that Pro-2023, Pro-4006, Pro-4011, Pro-4047, Pro-4051 and Pro-4051a behave as effective cysteine prodrugs.

[2] = Brain levels of glutathione following oral administration; type: in vivo; conditions: C57BL/6 mice, 100 mg/kg oral, 4 hours; for glutathione in the brain: brain tissue
Description: A compound of the invention was administered orally to C57BL/6 mice at either 10 or 100 mg/kg. Brain samples were collected at 0.25, 0.50, 1, 2 and 4 hours following the oral administration. Levels of NAC and glutathione were quantified in the brain samples using liquid chromatography-mass spectrometry (LC-MS/MS).

Row | SMILES | intracellular cysteine, times that of the control ([1]; 300 μM compound, 90 minutes) | intracellular cysteine concentration ([1]; 300 μM compound, 90 minutes) | intracellular cysteine, times that of the control ([1]; 100 μM compound, 90 minutes) | intracellular cysteine concentration ([1]; 100 μM compound, 90 minutes) | glutathione in the brain, times that of the vehicle [2] | glutathione in the brain [2] | intracellular cysteine, times that of the control ([1]; 100 μM compound, 30 minutes) | intracellular cysteine concentration ([1]; 100 μM compound, 30 minutes)
1 | CCOC(=O)[C@H](CSC(=O)C1CSC(=O)N1)NC(C)=O (stereo partly drawn) [Pro-4047, Ethyl (2R)-2-acetamido-3-(2-oxo-1,3-thiazolidine-4-carbonylsulfanyl) propanoate] | approximately 4.9 times | 0.74 µM | – | – | – | – | – | –
2 | CCOC(=O)[C@H](CSC(=O)c1ccc(C)cc1)NC(C)=O [Pro-4051, Ethyl (2R)-2-acetamido-3-(4-methylbenzoylsulfanyl)propanoate] | – | – | approximately 4 times | 0.36 µM | about 1.05 times | about 1960 nmol/g | – | –
3 | CC(=O)N[C@@H](CSC(=O)c1ccc(C)cc1)C(=O)O [Pro-2023, (2R)-2-Acetylamino-3-(4-methyl-benzoylsulfanyl)-propionic acid] | – | – | – | – | about 2 times | about 200 nmol/g | approximately 1.6 times | 0.16 µM

Source: patent US10961187B2, “Substituted N-acetyl-L-cysteine derivatives and related compounds” (Promentis Pharmaceuticals, Inc., priority 2013, dated 2021)
